# In article PMC11915509, “Small molecule inhibitors of hnRNPA2B1–RNA interactions reveal a predictable sorting of RNA subsets into extracellular vesicles” (Nucleic Acids Research, 2025):
# What was measured:
# [1] = system: hnRNPA2B1 and TDP43 bound RNA (miR-221, miR-1910); assay: RNA immunoprecipitation (RIP) on cytoplasmic lysates of treated NSC34 cells; format: cell-based, mouse; details: 6 h treatment, anti-hnRNPA2B1 and anti-TDP43 RIP
# Experimental: Flow cytometry of a fraction of RNA immunoprecipitation (RIP) experiments, consisting of RNA/protein-antibody-bead complexes, was performed on the same instrument using a sequential gating with Streptavidin beads alone ± antibodies (this signal corresponded to background). Pyronin Y (PY) was used at a final concentration of 50 ng/ml and the PY-positive events recorded for 1 min.
# Approximately 2 × 10^6 cells were used for each RIP experiment, performed as already described, without cross-linking steps and using 0.5 μg/ml of antibodies. Beads-precipitated samples were divided for immunoblotting or TRIzol-based RNA isolation. Densitometric analysis obtained using Image J software (v.1.54). miRNA TaqMan probes were bought from Thermo Fisher with the following codes: miR-221 (477 981), miR-1910 (479 581), and miR-126 (4 427 975).
# [2] = system: EV miR-221 from NSC34 cells; assay: ddPCR of miR-221-3p in NSC34-derived EV-RNA; format: cell-based, mouse; details: NSC34-derived EVs, 6 h treatment
# Experimental: EVs were isolated from HEK293T, NSC34, and smNPC-derived motor neurons using nickel-based isolation (NBI) or differential ultracentrifugation (UC). NBI protocol was performed as already described. Briefly, after a first centrifugation step at 2800 × g for 10 min, nickel beads were incubated for 30 min with serum-free media collected from cells in a ratio of 25 μl of beads per ml of medium. After a 2 min centrifugation at 600 g, particles were eluted from the beads by adding 1× elution buffer made of Solution A [16 mM ethylenediaminetetraacetic acid (EDTA), UltraPure, pH 8.0, Thermo Fisher] and Solution B (10 mM NaCl, 225 μM citric acid, Sigma–Aldrich) diluted five times in phosphate-buffered saline (PBS). After 15 min incubation at 28°C in a thermoshaker, the EVs were retrieved by 1-min centrifugation at 1800 × g and subjected to the following characterization. NBI was used to recover polydisperse EVs and include the RNA contribution from these for reverse proteomics experiments. The EV-RNA for reverse proteomics was pooled from three consecutive EV isolation procedures performed on a total of 30 T75 flasks (10 flasks each) of NSC34 cells grown until 80% confluence under standard conditions before washing with PBS and incubating with serum-free medium with glutamine and antibiotics. Differential UC was applied as an alternative EV isolation protocol to confirm the detection of hnRNPA2B1 protein. UC was performed by a SW 32 Ti swinging bucket rotor in an Optima XPN-100 ultracentrifuge (Beckman Coulter, Brea, CA, USA). The cell-conditioned serum-free media, after the first centrifugation step at 2800 × g for 10 min, was put in open-top Ultra-Clear centrifuge tubes (Beckman Coulter-344058) and subjected to 100 000 × g (100 K) UC for 70 min at 4°C under vacuum, with or without an additional step at 10 000 × g (10 K) to first sediment larger particles. Then the supernatant was removed, and the pellet was resuspended in 0.22 μm filtered PBS. Differential UC alone, consisting of 2800 × g for 10 min and 100 000 × g for 70 min, was applied for experiments reported in Fig. 5. […]
# RNA from cells was extracted using TRI Reagent® (T9424, Sigma) following the manufacturer’s instructions. Thermo Fisher Nanodrop 2000 Spectrophotometer was used to assess the purity and quantity of extracted RNA. […] The elution was in 10–20 μl of RNase-free water and the RNA profiling and quantification was assessed by Agilent 2100 Bioanalyzer and RNA 6000 Pico Kit (5067-1513). Cell- and EV-RNAs were also analysed with DNF-472 HS RNA (15 nt) Kit (Agilent Technologies, Santa Clara, CA), according to the manufacturer. […] Results were analysed with Agilent ProSize data analysis software, that allows the analysis of RNA size, concentration and quality. […]
# [3] = system: EXO-motif RNA probe; assay: Absorbance scan of compounds mixed with EXO-motif RNA; format: binding; details: EXO-motif probe, 1:5 micromolar ratio with compound, room temperature
# Experimental: Five μM RNA EXO motif were mixed with 25 μM compounds in AlphaBuffer (25 mM HEPES, pH 7.4, 100 mM NaCl, 0.01% BSA) to a final volume of 20 μl. Absorbance spectrum (200–530 nm) was measured using Tecan Spark® microplate reader with a NanoQuant plate at room temperature. In fluorescence indicator displacement (FID), a 2× final concentration of Midori green advanced (Resnova) was added to the samples and the melting curve measured using Bio-Rad CFX96™ System from 30°C to 90°C.
# [4] = biological target: T1, hnRNPA2B1-RNA 114 probe interaction (Homo sapiens, UniProt P22626); assay: AlphaScreen with RNA 114 probe and compounds; format: binding; details: 250 nM of compounds, 14 nM RNA 114 probe
# T1 construct: purified a human full-length, GST-tagged protein expressed in Escherichia coli cells; made in house; host or cells: E. coli BL21 (DE3)
# T1 sequence (P22626 whole entry): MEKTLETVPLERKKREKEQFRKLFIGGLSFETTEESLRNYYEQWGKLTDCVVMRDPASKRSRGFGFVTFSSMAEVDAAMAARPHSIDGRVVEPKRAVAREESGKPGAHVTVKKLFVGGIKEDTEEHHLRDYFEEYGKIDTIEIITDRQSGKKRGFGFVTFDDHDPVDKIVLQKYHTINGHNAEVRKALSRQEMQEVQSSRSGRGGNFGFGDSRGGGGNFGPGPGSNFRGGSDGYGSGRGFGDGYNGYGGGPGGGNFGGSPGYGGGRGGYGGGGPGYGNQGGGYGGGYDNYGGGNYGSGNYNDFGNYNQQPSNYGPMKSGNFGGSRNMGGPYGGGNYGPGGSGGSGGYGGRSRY
# Experimental: The assays were performed in OptiPlate-384-well plates (PerkinElmer, 6007299) in 20 μl final volume. The ligands were diluted in AlphaBuffer [25 mM HEPES, pH 7.4, 100 mM NaCl, 0.01% bovine serum albumin (BSA)] and tested using AlphaScreen GST Detection Kit (PerkinElmer, 6760603C). For the assay optimization, different concentrations of the RNA probes (0–100 nM) were incubated with different concentrations of GST-hnRNPA2B1 (0–60 nM) in the presence of streptavidin Donor beads and anti-GST-Acceptor beads (PerkinElmer) (20 μg/ml final concentration). For the reactions, 4 μl of the RNA probes were first added to the plate, then 16 μl of a mix containing all the other components was added, and the plate was incubated at room temperature for 1 h in the dark.
# [5] = system: NSC34 cells; assay: Cell viability dose response, NSC34; format: cell-based, mouse; details: NSC34, 24 hr
# Experimental: (§1) Supplementary Figure S6. Cell viability upon treatment with Hematein. Cells were exposed to increasing concentrations of Hematein or DMSO (control vehicle) for 24 hr under standard growth conditions. […] In both cases a range of drug tolerance was observed before the drop of viability over 10 µM. The graph indicates mean and SD of two independent experiments.
# [6] = system: HEK293T cells; assay: Cell viability dose response, HEK293T; format: cell-based, human; details: 24 hr
# Experimental: as §1
structure (smiles),measurement,setting,value
"O=C1C=C2CC3(O)COc4c(ccc(O)c4O)C3=C2C=C1O (centres unmarked) [H, hematein]","percentage of bound targets (miR-221, miR-1910)",[1],significantly reduced
same,"vesicular miR-221, copy number normalized on Y3 RNA and DMSO",[2],vesicular depletion
same,"absorbance shifts, 300-400 nm",[3],absorbance shifts
same,interference with RNA 114 probe interaction,[4],most effective inhibitors
same,IC50,"[5]; Mus musculus, NSC-34",~78 µM
same,concentration of drop of viability,[5],over 10 µM
same,concentration of drop of viability,[6],over 10 µM
same,IC50,"[6]; Homo sapiens, HEK-293T",~41 µM
